Measurements: patent US20210379106A1, “OXABICYCLOHEPTANES FOR ENHANCING CAR T CELL FUNCTION” (Lixte Biotechnology, Inc., priority 2018, published 2021)

What was measured:
PP2A = PP2A (Homo sapiens, UniProt P67775); conditions: cited from earlier work
CD19 CAR T cells = assay: IFNγ intracellular staining / flow cytometry of CD19CAR T cells after co-culture with CD19+ tumor cells; format: cell-based; conditions: for percentage of CAR+/CD8+/INFγ+: 0.5 μM LB-100, 1.0 μg/mL Nivo
Protocol: FIG. 1. Generation of CD19 CAR T cells PBMC from healthy donor were activated with CD3/CD28 beads and transduced with lentivirus encoding second generation of CD19CAR containing costimulatory signaling CD28. After 14 days of ex vivo expansion, percentages of CD8 and CAR positive T cells were determined by flow cytometry.
(§1) FIG. 2. […] Post treatment, 0.1×10^6 CD19 CART cells were then co-cultured with 0.1×10^6 different CD19+ tumor cells for 24 hours followed by surface staining of CAR and CD8 and intracellular staining of IFN-γ. Percentages of IFNγ+CD8+ CAR T cells in gated CAR positive population are presented.
FIG. 3. […] Post treatment, 0.1×10^6 CD19CAR T cells were then co-cultured with 0.1×10^6 CD19+Daudi lymphoma cells for 24 hours followed by surface staining of CAR and CD8 and intracellular staining of IFN-γ. Percentages of IFN-γ+CD8+ CAR T cells (A) and FACS plots (B) in gated CAR positive population are presented.
as §1, with “4.” for “2.”, “CD19CAR T” for “CD19 CART”, “IFN-γ. Myeloid leukemic cells (KG1a) were used as negative control.” for “IFN-γ.”, “IFN-γ+CD8+” for “IFNγ+CD8+”
We assessed the effects of LB-100 and Nivo on CD19 CART cell function. Propagated CD19CAR T cells were stimulated with dynal beads coated with antibody against CD19 (FMC63) at 1:1 ratio for five days and cultured under the following conditions: CD19CAR T cell alone, CD19CAR+ 0.5 μM LB-100, CD19CAR+ 1.0 μg/mL Nivo, and CD19CAR with combination of LB-100 and Nivo. Drugs were supplemented into the culture every other day. Functional assay was performed six days after treatment. The cells were then co-cultured with the different CD19+ ALL cells SupB15 and different lymphoma Daudi and Raji cells overnight. Cells were then stained for Interferon-gamma (IFNγ) followed by flow cytometry analysis. Acute myeloid leukemia (AML) cells KG1a were used as negative controls. […] To test the antitumor activity of the combinatorial therapy in vivo we established an acute lymphoid leukemia (ALL) model by inoculating SupB15-GFP-ffluc cells into NSG mice, 5 days after tumor engraftment, mice were treated with CD19CAR T cells by intravenous injection, along with intraperitoneally injections of LB100 (4 μg/mouse), Nivo (200 μgm/mouse) or LB100+Nivo every other day as combination therapy.

[1] = system: cell lines from a variety of human solid tumors; conditions: cited from earlier work
solid tumor = conditions: largest phase 1 trial, cited from earlier work

PP2A, sequence (P67775 whole entry): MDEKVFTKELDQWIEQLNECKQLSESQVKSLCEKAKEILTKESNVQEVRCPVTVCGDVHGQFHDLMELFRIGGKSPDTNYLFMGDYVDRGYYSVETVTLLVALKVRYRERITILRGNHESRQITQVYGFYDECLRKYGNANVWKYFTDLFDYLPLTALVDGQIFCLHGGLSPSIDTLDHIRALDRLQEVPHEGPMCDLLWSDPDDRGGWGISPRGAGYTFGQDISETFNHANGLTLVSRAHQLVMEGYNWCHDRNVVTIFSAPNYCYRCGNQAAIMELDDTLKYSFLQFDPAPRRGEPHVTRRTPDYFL

## C[C@@]12C(=O)OC(=O)[C@]1(C)[C@H]1CC[C@@H]2O1 [Cantharidin]
PP2A
  inhibition of PP2A: potent inhibitor of PP2A

## CN1CCN(C(=O)C2C(C(=O)O)[C@H]3CC[C@@H]2O3)CC1 (stereo partly shown) [LB-100]
CD19 CAR T cells; FIG. 2, CD19 antibody coated beads, different concentrations of LB100 on days 1, 3 and 5, different CD19+ tumor cells 24 hours
  effector function of CD19CAR T cells (IFNγ+CD8+ CAR T cells): improves effector function of CD19CAR T cells in a dose dependent manner
CD19 CAR T cells; co-cultured with Daudi cells overnight, CD19 antibody bead stimulation
  percentage of CAR+/CD8+/INFγ+: 10.99%
CD19 CAR T cells; co-cultured with Raji cells overnight, CD19 antibody bead stimulation
  percentage of CAR+/CD8+/INFγ+: 10.30%
CD19 CAR T cells; co-cultured with SupB15 cells overnight, CD19 antibody bead stimulation
  percentage of CAR+/CD8+/INFγ+: 10.14%
CD19 CAR T cells; corresponding treatment, co-cultured with KG1A AML cells (negative control)
  percentage of CAR+/CD8+/INFγ+: 6.33%
CD19 CAR T cells; corresponding treatment, media alone (no tumor cells)
  percentage of CAR+/CD8+/INFγ+: 7.28%
PP2A
  inhibition of PP2A: potent inhibitor of PP2A
[1]
  proliferation of cell lines: inhibit proliferation

## CCN1CCCC1CNC(=O)c1cc(S(=O)(=O)CC)c(NC)cc1OC (stereo not shown) [LB-102]
[1]
  proliferation of cell lines: inhibit proliferation

## C[C@@](O)(/C=C/[C@H]1CC=CC(=O)O1)[C@@H](C[C@@H](O)\C=C/C=C\C=C\CO)OP(=O)(O)O [fostriecin, Fostriecin]
Solid tumor; 46 solid tumor patients
  dose-limiting toxicity (DLT): without dose-limiting toxicity
Solid tumor; 16 of 46 patients
  disease stability, share of solid tumor patients: 34.8%

## O=C1OC(=O)[C@H]2[C@@H]1[C@@H]1CC[C@H]2O1 [norcantharidin]
PP2A
  inhibition of PP2A: potent inhibitorsof PP2A
